Measured values from paper PMC11207729, “Unveiling Anticancer Potential of COX-2 and 5-LOX Inhibitors: Cytotoxicity, Radiosensitization Potential and Antimigratory Activity against Colorectal and Pancreatic Carcinoma” (Pharmaceutics, 2024).
“And” between values parts separate entries of the source, which are not always exact repeats. Equal values may be shown once.

Columns and labels:
BxPC-3 cells = assay: MTT cytotoxicity assay, BxPC-3; format: cell-based, human; details: for IC50: MTT, 72 h after treatment, mean ± SEM; for Selectivity index (IC50 normal cell line/IC50 cancer cell lines), BxPC-3: MRC-5 / BxPC-3, in brackets
Description: (§1) SW620 cells were cultured in Dulbecco’s Modified Eagle’s medium (DMEM, Sigma-Aldrich Chemie GmbH, Steinheim, Germany) and supplemented in the same manner as the previously mentioned cell lines. Cells were grown in cell culture flasks T25 (Sarstedt AG & Co., Nümbrecht, Germany) at appropriate cell densities in the culture medium prior to exposure to treatments. Stock solutions of each compound, prepared in DMSO, were diluted in the culture medium to obtain the appropriate final concentrations.
(§2) The viability of the control and cells treated with the tested compounds was determined by MTT assay. Cells were seeded in 96-well plates at a density of 2000 cells/well, allowed to attach overnight, and then treated with rising concentrations of testing compounds. The ability of viable cells to reduce 3-(4,5-dimethylthiazol-2-yl)-2,5-diphenyltetrazolium bromide into blue-purple formazan crystals, was measured 72 h after the treatments. Namely, l mg/mL of MTT reagent (Sigma-Aldrich Chemie GmbH, Steinheim, Germany) was added to each well and incubated for an additional 4 h. Finally, upon removal of the medium containing MTT, 200 µL of DMSO was added to each well.

SW620 cells [1] = assay: Wound-healing assay; format: cell-based, human; details: 25 μM; for Relative Wound Closure (%) 24 h: SW620, 24 h relative to T0, mean ± SEM, control 17.87 ± 3.48; for Relative Wound Closure (%) 48 h: SW620, 48 h relative to T0, mean ± SEM, control 24.51 ± 1.39
Description: The migratory potential of SW620 cells (human colon carcinoma cell line) was evaluated by a wound-healing assay. Cells were seeded in density of 300,000 cells per well in 24-well tissue culture microplates and grown for 24 h in DMEM medium supplemented with 10% FBS, penicillin/streptomycin and L-glutamine at 37 °C in a humidified atmosphere containing 5% CO2. Upon reaching confluence, a uniform wound was scratched into a monolayer of each well with a sterile plastic 200 μL micropipette tip. After wounding, the medium was replaced and cells were further treated with 25 μM of compounds 1, 2, 3, and 5 for 24 h and 48 h. Wound closure was monitored by imaging cells at 4× magnification using the ImageXpress® Pico Automated Cell Imaging System (Molecular Devices®, San Jose, CA, USA) immediately (T0), and at 24 h (T24) and 48 h (T48) after wounding. The captured images were analyzed by ImageJ software v. 1.52p (U.S. National Institutes of Health, Bethesda, MD, USA) to measure the degree of closure of the wounded area. Independent experiments were performed three times.

MRC-5 cells = assay: MTT cytotoxicity assay, MRC-5 normal fibroblasts; format: cell-based, human; details: for IC50: MTT, 72 h after treatment, mean ± SEM, healthy cell line; for Selectivity index, MRC-5: MRC-5 / MRC-5 (reference value), in brackets
HCT 116 cells = assay: MTT cytotoxicity assay, HCT 116; format: cell-based, human; details: for IC50: Homo sapiens, HCT-116, MTT, 72 h after treatment, mean ± SEM; for Selectivity index (IC50 normal cell line/IC50 cancer cell lines), HCT 116: MRC-5 / HCT 116, in brackets
Description: as §1, §2

HT-29 cells [2] = assay: MTT cytotoxicity assay, HT-29; format: cell-based, human; details: for IC50: Homo sapiens, HT-29, MTT, 72 h after treatment, mean ± SEM; for Selectivity index (IC50 normal cell line/IC50 cancer cell lines), HT-29: MRC-5 / HT-29, in brackets
Description: as §1, §2

SW620 cells [3] = assay: Cytotoxicity in SW620 cells after 24 h treatment (Table S2); format: cell-based; details: Homo sapiens, SW-620, read-out: IC50 (µM) following 24h treatment in SW620 cells
HT-29 cells [4] = assay: SRB assay, compound plus γ-radiation, HT-29; format: cell-based, human; details: IC50 concentration 24 h before 2 Gy γ-radiation, SRB 72 h after irradiation
Description: In the experiments involving irradiation, cells were irradiated at room temperature, in the vertical position with the cell monolayer facing ^60Co γ-rays (CIRUS-Cis Biointernational). The irradiation of samples was performed in Vinča Institute of Nuclear Sciences, Belgrade, Serbia. In all experiments, a clinically relevant radiation dose of 2 Gy with the dose rate of ~1 Gy/min was applied.
For the evaluation of cell viability after treatments with radiation as well as after combined treatments, a sulforhodamine B (SRB) protein binding assay was used. This assay is based on the staining of cellular proteins. Maintaining conditions were identical to that of MTT assay. The cells were pretreated with IC50 concentrations of tested compounds for 24 h before irradiations. Following the 72 h post-irradiation incubation time under standard conditions (5% CO2, 37 °C) cells were fixed by protein precipitation with 10% trichloroacetic acid (TCA) at 4 °C for 1 h. Plates were rinsed with distillated water and stained with 0.4% SRB (Sigma-Aldrich Chemie GmbH, Steinheim, Germany) in 1% acetic acid, for 15 min at room temperature. Excess stain was removed by washing the wells in 1% acetic acid. After being rinsed, microwell plates were air dried until no staining moisture was visible. Bound dye was dissolved in 10 mM unbuffered Tris base (pH 10.5) for 5 min on a gyratory shaker. The absorbance of each well was measured using a microplate reader (Wallac VICTOR2 1420 Multilabel counter, PerkinElmer, Turku, Finland) at a test wavelength of 550 nm.

SW620 cells [5] = details: cited from earlier work
in vivo = details: in vivo
Description: Wild-type (AB) zebrafish embryos, kindly provided by Dr. Ana Cvejić (Wellcome Trust Sanger Institute, Cambridge, UK), were raised to adult stage in a temperature- and light-controlled zebrafish facility at 28 °C and a standard 14:10 h light–dark photoperiod. Fish were fed with commercial dry food (SDS200 and SDS300 granular food; Special Diet Services, Essex; UK and TetraMinTM flakes; Tetra Melle, Germany) twice a day, and with Artemia nauplii daily.
Embryos produced by pairwise mating were washed to remove debris, distributed at 10 per well into 24-well plates containing 1 mL of E3 medium (5 mM NaCl, 0.17 mM KCl, 0.33 mM CaCl2 and 0.33 mM MgSO4 in distilled water) and maintained at 28 °C. […] Dead embryos were recorded and discarded every 24 h. […] Experiments were performed in triplicate using 30 embryos for each concentration. At 120 hpf, embryos were anesthetized by the addition of 0.1% (w/v) tricaine solution (Sigma-Aldrich, St. Louis, MO, USA), photographed, and killed by freezing at −20 °C for ≥24 h.

| Compound | IC50 (BxPC-3 cells; Homo sapiens, BXPC-3, 72 h) | Selectivity index (IC50 normal cell line/IC50 cancer cell lines), BxPC-3 (BxPC-3 cells) | Relative Wound Closure (%) 24 h (SW620 cells [1]) | Relative Wound Closure (%) 48 h (SW620 cells [1]) | IC50 (MRC-5 cells; Homo sapiens, MRC5, 72 h) | Selectivity index, MRC-5 (MRC-5 cells) | IC50 (HCT 116 cells) | Selectivity index (IC50 normal cell line/IC50 cancer cell lines), HCT 116 (HCT 116 cells) | IC50 (HT-29 cells [2]) | Selectivity index (IC50 normal cell line/IC50 cancer cell lines), HT-29 (HT-29 cells [2]) | IC50 (SW620 cells [3]) | cell proliferation, combined treatment versus radiation alone, HT-29 (HT-29 cells [4]) | IC50 (BxPC-3 cells) | IC50 (MRC-5 cells) | antimigratory effects on SW620 cell line (SW620 cells [5]; 10 nM, after 24 h) | migratory ability of SW620 cells (SW620 cells [5]; 400 μM, after 36 h) | LC50 (in vivo) | antimigratory properties in SW620 cells (SW620 cells [5]; 30 μM, 48 h) |
| --- | --- | --- | --- | --- | --- | --- | --- | --- | --- | --- | --- | --- | --- | --- | --- | --- | --- | --- |
| COc1ccc2c(c1)c(CNC(=O)NO)c(C)n2C(=O)c1ccc(Cl)cc1 [Compound 1] | 12.8 ± 1.11 µM | 0.76 | 3.20% and 3.20 ± 0.99% | 5.08% and 5.08 ± 2.46% | 9.68 ± 2.34 µM | 1 | 4.97 ± 0.78 µM | 1.95 | 9.78 ± 0.68 µM | 0.99 | 215 ± 4.9 µM | – | – | – | – | – | – | – |
| CC(NC(=O)NO)c1ccc(-c2ccccc2)c(F)c1 (stereo not drawn) [Compound 2] | 48.7 ± 4.6 µM | 1.42 | 7.47 ± 2.14% | 11.61 ± 3.06% | 69.1 ± 3.07 µM | 1 | 64.8 ± 2.76 µM | 1.07 | 82.4 ± 4.25 µM | 0.84 | 386 ± 11.8 µM | – | – | – | – | – | – | – |
| COC(=O)C(Cc1cnc[nH]1)NC(=O)c1cc(C(C)(C)C)c(O)c(C(C)(C)C)c1 (stereo not drawn) [Compound 4] | 24.7 ± 2.01 µM | 1.43 | – | – | 35.4 ± 4.14 µM | 1 | 29.5 ± 5.23 µM | 1.20 | 42.3 ± 2.57 µM | 0.84 | – | – | – | – | – | – | – | – |
| COC(=O)CNC(=O)c1cc(C(C)(C)C)c(O)c(C(C)(C)C)c1 [Compound 5] | 41.2 ± 2.88 µM | > 2.43 | 7.12 ± 1.43% | 9.11 ± 0.27% | > 100 µM | – | 51.7 ± 1.78 µM | > 1.94 | 81.6 ± 2.77 µM | > 1.22 | 132 ± 3.5 µM | significantly inactivated HT-29 cells | – | – | – | – | – | – |
| CCOc1ccccc1NC(=O)N(C)C [Compound 8] | > 100 µM | – | – | – | > 100 µM | – | > 100 µM | – | > 100 µM | – | – | – | – | – | – | – | – | – |
| CN(C)C(=O)Nc1ccccc1C(=O)O [Compound 9] | > 100 µM | – | – | – | > 100 µM | – | > 100 µM | – | > 100 µM | – | – | – | – | – | – | – | – | – |
| CCOc1ccccc1NC(=O)Nc1ccc([N+](=O)[O-])cc1 [Compound 10] | 6.05 ± 1.68 µM | 3.09 | – | – | 18.7 ± 0.98 µM | 1 | 9.3 ± 0.38 µM | 2.01 | 7.08 ± 0.3 µM | 2.64 | – | – | – | – | – | – | – | – |
| CC(=O)N(O)C(C)c1ccc(CC(C)C)cc1 (stereo not drawn) [Compound 11] | 63 ± 3.8 µM | 0.91 | – | – | 57.1 ± 3.8 µM | 1 | 82 ± 2.34 µM | 0.70 | 84.1 ± 3.43 µM | 0.68 | – | – | – | – | – | – | – | – |
| COc1ccc2cc(C(C)N(O)C(C)=O)ccc2c1 (stereo not drawn) [Compound 12] | > 100 µM | 0.83 | – | – | > 100 µM | 1 | > 100 µM | – | > 100 µM | – | – | – | 76.7 ± 5.54 µM | 63.6 ± 9.04 µM | – | – | – | – |
| CC(C)(C)c1cc(/C=C2\SC(=S)N(N)C2=O)cc(C(C)(C)C)c1O [Compound 13] | 1.8 ± 0.1 µM | 31.72 | – | – | 57.1 ± 3.8 µM | 1 | 2.21 ± 0.12 µM | 25.84 | 12.4 ± 1.95 µM | 4.60 | – | – | – | – | – | – | – | – |
| O=C(O)Cc1ccccc1Nc1c(Cl)cccc1Cl [Diclofenac, reference compound] | 57.2 ± 3.03 µM | – | – | – | – | – | 79.1 ± 3.68 µM | – | 75 ± 3.98 µM | – | – | – | – | – | – | – | – | – |
| CC(C(=O)O)c1ccc(-c2ccccc2)c(F)c1 (stereo not drawn) [Flurbiprofen, reference compound] | > 100 µM | – | – | – | > 100 µM | – | > 100 µM | – | > 100 µM | – | – | – | – | – | significant antimigratory effects | – | – | – |
| COc1ccc2c(c1)c(CC(=O)O)c(C)n2C(=O)c1ccc(Cl)cc1 [Indomethacin, reference compound] | 85.9 ± 2.58 µM | 0.93 | – | – | 79.8 ± 5.9 µM | 1 | 60.4 ± 4.27 µM | 1.32 | 89.5 ± 4.45 µM | 0.89 | – | – | – | – | – | significantly decreased the migratory ability | – | – |
| CC(c1cc2ccccc2s1)N(O)C(N)=O (stereo not drawn) [Zileuton, reference compound] | 74.9 ± 4.1 µM | 1.28 | – | – | 95.74 ± 0.94 µM | 1 | 44.9 ± 3.48 µM | 2.13 | 78.5 ± 2.28 µM | 1.22 | – | – | – | – | – | – | 4.41 µM | – |
| Cc1ccc(-c2cc(C(F)(F)F)nn2-c2ccc(S(N)(=O)=O)cc2)cc1 [celecoxib] | – | – | – | – | – | – | – | – | – | – | – | – | – | – | – | – | – | comparable efficacy to compounds 1, 2, 3 and 5 |
